Results on three molecules are retold here after paper PMC11477000, “Enantioselective Binding of Proton Pump Inhibitors to Alpha1-Acid Glycoprotein and Human Serum Albumin—A Chromatographic, Spectroscopic, and In Silico Study” (International Journal of Molecular Sciences, 2024).

Where “and” joins values, the source holds several entries; their conditions need not be identical. Equal entries are not always repeated.

Data set [1] deals with T1, human serum albumin (HSA) (Homo sapiens, UniProt P02768). The data set is described as follows: van 't Hoff thermodynamic analysis on HSA column. It is filed as binding. The note with it: for Δ(ΔG°) / Δ(ΔH°) / Δ(ΔS°): pH 7, 95:5 buffer:IPA, 10–30 °C. The protocol: The temperature effect was investigated at pH 7 and a 95:5 buffer:IPA eluents ratio, between 10 and 30 °C on both columns. […] The determination of thermodynamic parameters can provide valuable insights into the process of enantiodiscrimination, including its mechanistic aspects. The applied classical van ’t Hoff methodology postulates the existence of solely enantioselective interaction sites on the stationary phase. Nonetheless, it should be emphasized that a more realistic approach would encompass both enantioselective and non-enantioselective interactions. The isoenantioselective temperatures (Tiso) were calculated by dividing Δ(ΔH°) by Δ(ΔS°). At this temperature, enthalpy and entropy compensations negate each other, resulting in the coelution of the two enantiomers and no separation. The Q values (Q = Δ(ΔH°)/T × Δ(ΔS°)298K) were used for visualizing the relative contribution of enthalpic and entropic terms to the free energy of adsorption. If the Q values were smaller than 1, the enantioseparation was controlled by entropy to a higher extent.
T1 sequence (P02768 25-609): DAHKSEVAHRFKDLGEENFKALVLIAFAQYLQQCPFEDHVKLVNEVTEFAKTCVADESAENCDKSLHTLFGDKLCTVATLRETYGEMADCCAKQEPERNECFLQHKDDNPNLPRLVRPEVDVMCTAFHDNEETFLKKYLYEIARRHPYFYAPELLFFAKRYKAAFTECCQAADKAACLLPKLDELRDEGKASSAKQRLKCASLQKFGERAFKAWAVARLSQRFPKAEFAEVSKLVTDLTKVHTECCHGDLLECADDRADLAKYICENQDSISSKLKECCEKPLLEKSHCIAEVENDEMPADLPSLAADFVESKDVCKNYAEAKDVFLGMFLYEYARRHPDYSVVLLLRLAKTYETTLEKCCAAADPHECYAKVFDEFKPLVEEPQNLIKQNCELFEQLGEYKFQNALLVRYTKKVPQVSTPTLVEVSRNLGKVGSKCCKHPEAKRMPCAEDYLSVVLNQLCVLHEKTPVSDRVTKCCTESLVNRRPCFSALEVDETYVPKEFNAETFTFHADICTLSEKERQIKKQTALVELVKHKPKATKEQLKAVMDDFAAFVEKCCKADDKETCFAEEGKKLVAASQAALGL
Classical van ’t Hoff analysis was applied to determine the thermodynamic parameters. Van ’t Hoff plots were constructed by plotting the natural logarithm of the retention factor as a function of the inverse of the absolute temperature (thermodynamic temperature) over a temperature range of 10–30 °C:(5) […]
In the equation, R represents the universal gas constant, T represents the absolute temperature in Kelvin, and k represents the retention factor of the enantiomers. ΔH° stands for the standard enthalpy, while ΔS° represents the standard entropy change of transfer of the solute from the mobile phase to the stationary phase. Φ is the phase ratio of the column. If ΔH° remains constant within the selected temperature range, a linear relationship can be observed between lnk and 1/T. The slope of this relationship is −ΔH°/R, and the intercept is ΔS°/R + ln Φ. Since the value of the phase ratio is rarely known, ΔS°* values (ΔS°* = ΔS° + Rln Φ) are often used to account for the uncertainty in Φ. Similarly, the difference in the change of standard enthalpy, Δ(ΔH°), and standard entropy, Δ(ΔS°), for the two enantiomers was calculated as follows:(6) lnα=−ΔΔH°/RT+ΔΔS°/R

The target in data set [2] is T1, human serum albumin (HSA). The data set is described as follows: Bound percentage by HPLC on HSA column, extrapolation to zero organic modifier. The format is in vitro ADME. The note with it: for Bound percentage (b%), average: average of IPA, EtOH, MeOH. The protocol:
Chromatographic columns containing proteins can be used to determine the percentage of drug binding. A plot of the natural logarithm of the retention factors against the proportion of organic modifiers was created. […] The intercept of these linear equations can be used to calculate the bound percentage according to Equation (4) (see in Section 3.2).
Chromatographic measurements were carried out on two separate HPLC systems. The AGP binding study was performed on a Waters 2695e chromatographic system paired with a Waters 2996 PDA detector, controlled by Empower 3 FR5 (Waters Corp., Milford, MA, USA), while the HSA binding study was performed on an Agilent 1100 HPLC system, consisting of an inline degasser (G1322A), a quaternary pump (G1311A), an automatic injector (G1329A) paired with sample thermostat (G1330A), a column thermostat (G1316A), and a diode array detector (G1315A) with Agilent Chemstation B04.03-SP2 software (Agilent, Bronnwald, Germany). For the binding studies, two protein-based chiral stationary phases were utilized. The chromatographic binding study for AGP was conducted on a ChromTech Chiral-AGP column (150 mm × 4.0 mm; ChromTech Ltd., Congleton, UK), while the binding study for HSA was performed on a Daicel Chiralpak HSA column (50 mm × 4.0 mm; Daicel Corp., Osaka, Japan). The detection wavelength was 210 nm for all measurements. The stock solutions of PPIs were prepared at a concentration of 1 mg/mL in MeOH. Subsequent dilutions were prepared using water. The injected samples were mixed and diluted from the stock solutions. The final concentration for the eutomer was 0.2 mg/mL, and for the distomer, it was 0.1 mg/mL. A volume of 2 μL was injected. To mitigate the instability of PPIs in aqueous solutions, the samples were kept at a temperature of 4 °C. Cooling the samples to 4 °C prevented significant decomposition for a period of 24 h. After 24 h, new samples were prepared for injection. Chromatographic parameters were calculated based on the following equations. The retention factor (k) was calculated as:(1) k=(tr−t0)/t0 where tr is the retention time of the investigated analyte, and t0 is the dead time, determined as the first peak appearance in the chromatogram. Resolution was calculated based on the following equation:(2) Rs=2(t2−t1)/(w1+w2) where t2 and t1 are the retention times of the second and first eluted enantiomers, respectively, while w is the peak width. The separation factor (α) was calculated as follows:(3) α=k2/k1 where k1 and k2 are the retention factors of the first- and second-eluting enantiomers, respectively. The k values were also used to calculate the protein-bound percentage (b%) using Equation (4):(4) b%=k/1+k×100

Data set [3] concerns AGP. The data set is described as follows: UV titration (Benesi–Hildebrand) with AGP. It is filed as binding, human. The note with it: human, pH 7.4, UV titration, n = 3; 1 μM AGP, pH 7.4 phosphate buffer, 24 °C, 278 nm; read-out: logKAGP ± Stdev (logarithm of stability constant) (converted). The protocol: The UV-Vis absorption assay is a straightforward and relatively simple method to examine the interactions between small molecules and macromolecules. Changes in the structure of the protein caused by the interacting ligand can lead to alterations in the absorption spectrum. […] Fixed wavelength measurements were conducted at the absorption maxima of AGP and HSA. […] The change in the absorbance and wavelength maximum in the UV spectra during the titration refers to the complex formation between proteins and PPIs. The Benesi–Hildebrand method was used to determine the stability constants based on Equation (7).
The absorption spectra were recorded on a Jasco V-750 spectrophotometer (Jasco, Tokyo, Japan) at 24 °C using 1.0 cm path-length quartz cuvettes. Then, 1 μM HSA and AGP were dissolved in a sodium phosphate buffer solution (pH 7.4; 0.1 M) and their concentration was kept constant. The PPIs were dissolved in DMSO, and further diluted with the AGP or HSA solution. Next, 1000 μL of 1 μM HSA and AGP solutions was titrated with the PPI stock solution in 1 μL steps. The concentration of the PPIs was set to 4.00, 7.98, 11.96, 15.94, 19.90, 23.86, 27.81, and 31.75 μM. The binding constants were determined using the Benesi–Hildebrand equation:(7) A0/A−A0=εPPI/εAPPI−εPPI+εPPI/εAPPI−εPPI×1/K×[C] where A0 is the absorbance of the HSA or AGP at 278 nm, A is the absorbance of the formed complex also at 278 nm, εPPI is the extinction coefficient of the actual PPI, εAPPI is the extinction coefficient of the albumin or AGP and PPI complex, K is the binding coefficient, and [C] is the concentration of the investigated PPI. The plot of A0/A − A0 versus C^−1 has a slope of K^−1. All experiments were performed in triplicate.

The mark [4] stands for this setting: difference between the two enantiomers.
The mark [5] stands for this setting: extrapolation to zero percent EtOH.
[6] abbreviates: extrapolation to zero percent IPA.
[7] abbreviates: extrapolation to zero percent MeOH.

The molecule `Cc1c(OCC(F)(F)F)ccnc1C[S+]([O-])c1nc2ccccc2[nH]1` (stereo not drawn) [Lansoprazole, lansoprazole] yielded a Q in data set [1] (Q = Δ(ΔH°)/T × Δ(ΔS°)298K) of 1.4. In data set [1] (setting [4]), the “Δ(ΔG°)” value was -0.17 kcal/mol, the “Δ(ΔH°)” value was -0.669 kcal/mol and the “Δ(ΔS°)” value was −7.2 J/molK. In addition, in data set [1] (Δ(ΔH°)/Δ(ΔS°)), the Tiso isoenantioselective temperature stood at 128.9 °C.
As to `Cc1c(OCC(F)(F)F)ccnc1C[S@@+]([O-])c1nc2ccccc2[nH]1` [R-lansoprazole, dexlansoprazole], the “Bound percentage (b%), average” value in data set [2] was 92.45% and 92.45 ± 0.59%. In addition, the “Bound percentage (b%)” value in data set [2] (setting [5]) is 92.69%. Also, the “Bound percentage (b%)” value in data set [2] (setting [6]) is recorded as 91.77%. Besides, the “Bound percentage (b%)” value in data set [2] (setting [7]) is on record as 92.89%. Moreover, in data set [1] (single enantiomer), the “Δ(ΔG°)” value is -1.39 kcal/mol, the “Δ(ΔH°)” value was -2.01 kcal/mol and the “Δ(ΔS°)” value was −8.7 J/molK. For the same molecule, in data set [3], the Kd was 27.5 µM.
As to `Cc1c(OCC(F)(F)F)ccnc1C[S@+]([O-])c1nc2ccccc2[nH]1` [S-lansoprazole], the “Bound percentage (b%), average” value in data set [2] was 94.64% and 94.64 ± 0.89%. For the same molecule, the “Bound percentage (b%)” value in data set [2] (setting [5]) is recorded as 94.85%. The “Bound percentage (b%)” value in data set [2] (setting [6]) is on record as 93.67%. Further, the “Bound percentage (b%)” value in data set [2] (setting [7]) is 95.42%. For the same molecule, in data set [1] (single enantiomer), the “Δ(ΔG°)” value is -1.58 kcal/mol, the “Δ(ΔH°)” value was -2.68 kcal/mol and the “Δ(ΔS°)” value is −15.9 J/molK. For the same molecule, the Kd in data set [3] is 14.8 µM.
